Assay results from ChEMBL document CHEMBL1201862, “PubChem BioAssay data set” (2004).
The source made the active and inactive calls.

Assays:
[1] = Luminescent dose response cell-based high throughput screening assay for inhibitors of the Janus kinase 2 mutant JAK2V617F. [Related pubchem assays: 1446 (Primary screen.), 1521 (Confirmation assay.), 1486 (Counter screen.)]; type: functional
[2] = biological target: T1, Replicative DNA helicase DnaB (Mycobacterium tuberculosis, UniProt P9WMR3); assay: DnaB intein splicing inhibitors, dose response, biochemical, cell-free fluorescence (AID 449749); type: functional
T1 sequence (P9WMR3 whole entry): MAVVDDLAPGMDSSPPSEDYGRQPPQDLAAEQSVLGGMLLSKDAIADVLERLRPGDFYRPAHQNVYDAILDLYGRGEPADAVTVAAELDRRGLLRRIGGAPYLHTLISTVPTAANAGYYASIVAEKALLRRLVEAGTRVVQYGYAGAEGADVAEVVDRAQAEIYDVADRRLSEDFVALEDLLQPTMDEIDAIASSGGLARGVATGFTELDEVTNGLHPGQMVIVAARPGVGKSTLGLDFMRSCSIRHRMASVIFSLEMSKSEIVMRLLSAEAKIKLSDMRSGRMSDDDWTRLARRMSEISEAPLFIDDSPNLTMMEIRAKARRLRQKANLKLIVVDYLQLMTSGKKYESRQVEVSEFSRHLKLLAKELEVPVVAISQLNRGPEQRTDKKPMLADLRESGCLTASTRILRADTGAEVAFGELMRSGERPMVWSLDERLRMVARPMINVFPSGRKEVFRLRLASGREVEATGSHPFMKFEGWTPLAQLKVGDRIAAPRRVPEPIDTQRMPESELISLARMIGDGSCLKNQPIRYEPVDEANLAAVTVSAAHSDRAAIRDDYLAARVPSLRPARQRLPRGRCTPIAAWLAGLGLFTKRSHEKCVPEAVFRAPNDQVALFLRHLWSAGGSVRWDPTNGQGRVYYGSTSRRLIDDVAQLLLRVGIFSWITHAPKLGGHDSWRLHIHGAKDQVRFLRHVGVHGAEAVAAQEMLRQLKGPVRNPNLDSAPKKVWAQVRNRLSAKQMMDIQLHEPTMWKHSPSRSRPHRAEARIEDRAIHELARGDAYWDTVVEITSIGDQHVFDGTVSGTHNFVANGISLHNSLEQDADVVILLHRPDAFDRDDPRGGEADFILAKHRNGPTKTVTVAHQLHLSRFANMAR

[3] = biological target: T2, Protein RecA (Mycobacterium tuberculosis, UniProt P9WHJ3); assay: Fluorescence Cell-Free Homogeneous Dose Retest to Identify Inhibitors of RecA-Intein Splicing Activity. [Related pubchem assays (depositor defined):AID2097, AID2223, AID489010, AID492950]; type: functional
T2 sequence (P9WHJ3 whole entry): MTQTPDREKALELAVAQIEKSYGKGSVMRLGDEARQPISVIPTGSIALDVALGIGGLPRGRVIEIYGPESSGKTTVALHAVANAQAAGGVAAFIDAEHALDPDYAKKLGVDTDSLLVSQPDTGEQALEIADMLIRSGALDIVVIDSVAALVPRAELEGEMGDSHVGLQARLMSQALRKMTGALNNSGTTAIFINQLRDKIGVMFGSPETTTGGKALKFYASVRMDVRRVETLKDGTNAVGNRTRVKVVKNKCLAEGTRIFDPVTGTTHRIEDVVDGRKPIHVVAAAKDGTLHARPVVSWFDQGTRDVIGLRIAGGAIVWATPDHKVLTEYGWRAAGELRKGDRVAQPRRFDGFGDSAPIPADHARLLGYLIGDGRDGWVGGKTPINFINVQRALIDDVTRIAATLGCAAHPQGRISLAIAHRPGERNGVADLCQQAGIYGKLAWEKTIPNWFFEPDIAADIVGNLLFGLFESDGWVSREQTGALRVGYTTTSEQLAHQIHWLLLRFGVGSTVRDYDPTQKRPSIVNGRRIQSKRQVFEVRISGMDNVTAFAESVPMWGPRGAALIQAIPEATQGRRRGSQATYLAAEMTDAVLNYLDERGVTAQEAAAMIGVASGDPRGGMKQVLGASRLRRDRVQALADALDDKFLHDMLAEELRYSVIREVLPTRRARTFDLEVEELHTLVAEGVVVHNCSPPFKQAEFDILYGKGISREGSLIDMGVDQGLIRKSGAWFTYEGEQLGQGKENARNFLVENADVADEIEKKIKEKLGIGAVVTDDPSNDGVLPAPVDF

[4] = biological target: Paired box protein Pax-8 (Homo sapiens, UniProt Q06710); assay: inhibitors of PAX8-driven TPO luciferase reporter, dose response, RMG-I cells, cherry-pick (AID 687027); type: functional, cell-based;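 note: luciferase reporter driven by Pax8 target thyroperoxidase promoter measured by SteadyGlo luminescence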
[5] = non-specific cell cytotoxicity, dose response, cytotoxicity control for PAX8 inhibitor project, plate reader, dry powder samples (AID 743021); type: functional, cell-based
[6] = biological target: Peroxisome proliferator-activated receptor gamma/Nuclear receptor coactivator 1 (Homo sapiens, UniProt P37231); assay: (§1) TR-FRET dose response biochemical High Throughput Screening assay for agonists of the steroid receptor coactivator 1 (SRC-1) recruitment by the peroxisome proliferator-activated receptor gamma (PPAR gamma): non-selective agonists. [Related pubchem assays (depositor defined):AID1300, AID1808, AID504735, AID631]; type: protein assay
[7] = biological target: Peroxisome proliferator-activated receptor gamma/Nuclear receptor coactivator 3 (Homo sapiens, UniProt P37231); assay: as §1, with “3 (SRC-3)” for “1 (SRC-1)”, “assays: 1301 (Confirmation screen.), 1048 (Primary screen.)]” for “assays (depositor defined):AID1300, AID1808, AID504735, AID631]”; type: functional
[8] = biological target: Peroxisome proliferator-activated receptor gamma/Nuclear receptor coactivator 2 (Homo sapiens, UniProt P37231); assay: TR-FRET dose response biochemical High Throughput Screening assay for agonists of the steroid receptor coactivator 2 (SRC-2) recruitment by the peroxisome proliferator-activated receptor gamma (PPAR gamma): non-selective agonists. [Related pubchem assays: 1297, 1032 ]; type: functional
[9] = biological target: Ephrin type-A receptor 4 (Mus musculus, UniProt Q03137); assay: inhibitors of EphA4 binding to KYL peptide, primary screen, biochemical, colorimetric, mouse EphA4 (AID 689); type: functional
[10] = biological target: T3, Polyadenylate-binding protein 1 (Homo sapiens, UniProt P11940); assay: PABP1 MLLE–PAM2 interaction inhibitors, dose response, miRNA deadenylation inhibitor project, biochemical, fluorescence polarization, Cy5-PAM2 peptide, secondary (AID 602260); type: functional; conditions: read-out: IC50_Mean
[11] = biological target: T3, Polyadenylate-binding protein 1; assay: PABP1 MLLE–PAM2 binding inhibitor potency, dose response, biochemical, fluorescence polarization, FITC-PAM2 peptide (AID 602259); type: functional; conditions: read-out: IC50_Mean
[12] = biological target: T4, Protein skinhead-1 (Caenorhabditis elegans, UniProt P34707); type: functional
T4 sequence (P34707 whole entry): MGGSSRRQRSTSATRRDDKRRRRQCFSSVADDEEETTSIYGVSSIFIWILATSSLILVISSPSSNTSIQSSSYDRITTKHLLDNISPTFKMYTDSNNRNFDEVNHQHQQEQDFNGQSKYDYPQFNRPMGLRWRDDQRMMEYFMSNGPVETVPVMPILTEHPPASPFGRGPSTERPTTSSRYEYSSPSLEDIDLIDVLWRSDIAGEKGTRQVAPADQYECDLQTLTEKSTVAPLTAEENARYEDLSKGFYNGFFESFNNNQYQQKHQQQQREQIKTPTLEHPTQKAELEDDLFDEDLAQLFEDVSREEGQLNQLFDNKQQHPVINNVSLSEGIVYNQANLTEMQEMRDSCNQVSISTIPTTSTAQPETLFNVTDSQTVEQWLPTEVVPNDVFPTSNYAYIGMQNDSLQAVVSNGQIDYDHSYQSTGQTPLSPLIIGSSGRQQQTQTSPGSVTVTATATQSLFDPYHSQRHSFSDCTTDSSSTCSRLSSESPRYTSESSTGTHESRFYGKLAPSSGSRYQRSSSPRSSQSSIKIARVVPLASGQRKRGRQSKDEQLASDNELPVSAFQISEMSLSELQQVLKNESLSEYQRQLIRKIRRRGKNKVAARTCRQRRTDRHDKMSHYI

T3 sequence (P11940 whole entry): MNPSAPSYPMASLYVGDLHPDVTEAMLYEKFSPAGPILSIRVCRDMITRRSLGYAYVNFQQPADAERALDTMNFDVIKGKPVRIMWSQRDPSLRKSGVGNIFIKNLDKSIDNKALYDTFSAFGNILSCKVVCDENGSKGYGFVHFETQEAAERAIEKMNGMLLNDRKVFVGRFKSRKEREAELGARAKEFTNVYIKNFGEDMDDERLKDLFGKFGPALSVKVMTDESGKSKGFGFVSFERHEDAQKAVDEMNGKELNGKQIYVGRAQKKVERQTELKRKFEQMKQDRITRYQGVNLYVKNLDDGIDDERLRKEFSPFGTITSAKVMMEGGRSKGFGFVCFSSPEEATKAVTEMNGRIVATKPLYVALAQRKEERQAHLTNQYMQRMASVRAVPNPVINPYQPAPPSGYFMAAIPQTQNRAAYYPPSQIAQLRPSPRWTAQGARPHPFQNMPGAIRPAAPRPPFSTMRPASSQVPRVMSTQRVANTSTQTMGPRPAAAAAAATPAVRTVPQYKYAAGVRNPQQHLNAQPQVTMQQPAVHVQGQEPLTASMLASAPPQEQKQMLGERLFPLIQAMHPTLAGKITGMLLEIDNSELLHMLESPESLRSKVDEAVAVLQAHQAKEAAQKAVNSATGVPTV
Sequence of Ephrin type-A receptor 4 (Q03137 whole entry): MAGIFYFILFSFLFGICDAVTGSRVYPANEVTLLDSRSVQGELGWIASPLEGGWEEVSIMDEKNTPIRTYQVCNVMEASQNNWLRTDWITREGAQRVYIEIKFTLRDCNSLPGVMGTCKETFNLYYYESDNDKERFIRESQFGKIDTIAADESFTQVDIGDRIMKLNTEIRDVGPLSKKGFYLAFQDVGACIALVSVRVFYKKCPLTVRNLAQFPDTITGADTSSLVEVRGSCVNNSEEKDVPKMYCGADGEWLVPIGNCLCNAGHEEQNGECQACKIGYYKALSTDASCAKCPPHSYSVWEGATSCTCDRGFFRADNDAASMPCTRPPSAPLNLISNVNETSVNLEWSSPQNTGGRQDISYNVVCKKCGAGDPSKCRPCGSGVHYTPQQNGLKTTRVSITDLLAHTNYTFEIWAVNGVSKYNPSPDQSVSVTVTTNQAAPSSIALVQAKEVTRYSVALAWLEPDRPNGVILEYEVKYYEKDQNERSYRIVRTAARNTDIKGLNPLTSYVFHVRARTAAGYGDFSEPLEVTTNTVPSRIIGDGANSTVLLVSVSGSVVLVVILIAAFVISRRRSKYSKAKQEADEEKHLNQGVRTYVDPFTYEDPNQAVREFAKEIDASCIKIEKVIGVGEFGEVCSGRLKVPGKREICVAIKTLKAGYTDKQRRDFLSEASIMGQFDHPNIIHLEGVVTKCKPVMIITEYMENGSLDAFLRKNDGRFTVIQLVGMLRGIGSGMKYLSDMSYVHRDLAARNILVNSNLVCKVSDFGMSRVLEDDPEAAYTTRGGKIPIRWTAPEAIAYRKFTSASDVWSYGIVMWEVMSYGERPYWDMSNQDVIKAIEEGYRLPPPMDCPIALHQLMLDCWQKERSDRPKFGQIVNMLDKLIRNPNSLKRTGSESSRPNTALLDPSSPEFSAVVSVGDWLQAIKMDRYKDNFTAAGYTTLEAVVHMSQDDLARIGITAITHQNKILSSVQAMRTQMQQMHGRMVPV
Sequence of Paired box protein Pax-8 (Q06710 whole entry): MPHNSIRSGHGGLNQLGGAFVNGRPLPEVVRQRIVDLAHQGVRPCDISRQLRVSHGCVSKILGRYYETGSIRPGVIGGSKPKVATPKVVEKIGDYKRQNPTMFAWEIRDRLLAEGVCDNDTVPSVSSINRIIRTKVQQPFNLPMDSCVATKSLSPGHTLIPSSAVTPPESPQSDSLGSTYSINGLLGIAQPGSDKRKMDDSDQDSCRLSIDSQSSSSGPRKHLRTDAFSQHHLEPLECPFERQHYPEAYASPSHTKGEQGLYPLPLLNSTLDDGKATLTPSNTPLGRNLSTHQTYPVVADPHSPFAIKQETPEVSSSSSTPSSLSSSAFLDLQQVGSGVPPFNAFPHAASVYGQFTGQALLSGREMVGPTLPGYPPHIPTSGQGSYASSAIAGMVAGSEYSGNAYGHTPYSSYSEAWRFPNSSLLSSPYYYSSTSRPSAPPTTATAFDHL
Sequence of Peroxisome proliferator-activated receptor gamma/Nuclear receptor coactivator 3 (P37231 whole entry): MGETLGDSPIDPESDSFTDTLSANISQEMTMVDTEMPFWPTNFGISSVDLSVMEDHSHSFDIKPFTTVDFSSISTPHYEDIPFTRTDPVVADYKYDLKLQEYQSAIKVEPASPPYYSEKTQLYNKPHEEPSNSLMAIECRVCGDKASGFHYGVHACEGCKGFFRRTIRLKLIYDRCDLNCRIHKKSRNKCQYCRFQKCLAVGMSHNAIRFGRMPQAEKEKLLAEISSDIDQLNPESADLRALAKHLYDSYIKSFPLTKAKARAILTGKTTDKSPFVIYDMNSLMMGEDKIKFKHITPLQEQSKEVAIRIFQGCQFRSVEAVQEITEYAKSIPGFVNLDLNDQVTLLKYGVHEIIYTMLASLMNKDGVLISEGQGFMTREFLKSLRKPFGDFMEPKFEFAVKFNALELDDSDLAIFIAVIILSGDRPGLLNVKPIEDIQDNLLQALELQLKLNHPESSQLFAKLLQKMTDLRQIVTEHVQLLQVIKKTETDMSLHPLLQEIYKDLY
Sequence of Peroxisome proliferator-activated receptor gamma/Nuclear receptor coactivator 3 (Q9Y6Q9 whole entry, further chain): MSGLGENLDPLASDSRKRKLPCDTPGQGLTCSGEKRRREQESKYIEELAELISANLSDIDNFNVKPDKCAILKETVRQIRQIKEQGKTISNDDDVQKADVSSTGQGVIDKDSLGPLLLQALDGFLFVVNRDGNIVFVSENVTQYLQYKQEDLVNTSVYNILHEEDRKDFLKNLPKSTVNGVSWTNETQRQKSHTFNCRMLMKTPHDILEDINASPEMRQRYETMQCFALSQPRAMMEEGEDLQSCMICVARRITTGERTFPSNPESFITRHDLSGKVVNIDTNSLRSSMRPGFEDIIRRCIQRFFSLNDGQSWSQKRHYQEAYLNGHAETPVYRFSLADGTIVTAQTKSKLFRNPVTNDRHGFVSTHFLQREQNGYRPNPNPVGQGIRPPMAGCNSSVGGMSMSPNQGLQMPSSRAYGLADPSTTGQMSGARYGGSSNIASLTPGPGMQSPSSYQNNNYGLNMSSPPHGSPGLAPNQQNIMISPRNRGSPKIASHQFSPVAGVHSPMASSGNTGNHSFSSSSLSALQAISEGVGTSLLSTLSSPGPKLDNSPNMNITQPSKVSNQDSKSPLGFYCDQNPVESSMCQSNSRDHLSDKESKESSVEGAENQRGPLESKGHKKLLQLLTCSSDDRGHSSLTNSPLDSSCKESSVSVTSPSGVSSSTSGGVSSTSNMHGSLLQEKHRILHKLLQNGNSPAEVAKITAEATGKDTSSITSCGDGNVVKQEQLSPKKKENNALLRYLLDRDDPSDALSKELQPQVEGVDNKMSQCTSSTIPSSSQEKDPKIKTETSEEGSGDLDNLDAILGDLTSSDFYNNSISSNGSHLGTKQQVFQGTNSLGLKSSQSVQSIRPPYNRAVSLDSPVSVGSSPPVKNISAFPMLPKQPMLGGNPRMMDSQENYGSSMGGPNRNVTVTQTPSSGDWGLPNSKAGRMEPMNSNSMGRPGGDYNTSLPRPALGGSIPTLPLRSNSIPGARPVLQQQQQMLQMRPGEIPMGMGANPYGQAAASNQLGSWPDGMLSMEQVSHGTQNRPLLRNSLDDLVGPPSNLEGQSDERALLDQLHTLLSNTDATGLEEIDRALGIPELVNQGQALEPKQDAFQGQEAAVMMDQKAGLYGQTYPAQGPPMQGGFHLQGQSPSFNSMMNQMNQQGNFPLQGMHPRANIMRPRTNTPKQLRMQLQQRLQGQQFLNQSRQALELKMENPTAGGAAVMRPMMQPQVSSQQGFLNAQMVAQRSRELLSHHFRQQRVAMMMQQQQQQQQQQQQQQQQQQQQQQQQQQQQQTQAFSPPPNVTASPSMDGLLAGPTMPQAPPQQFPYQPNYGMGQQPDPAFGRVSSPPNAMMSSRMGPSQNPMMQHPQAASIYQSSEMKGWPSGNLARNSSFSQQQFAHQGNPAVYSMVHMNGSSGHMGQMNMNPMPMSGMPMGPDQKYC

CCCCCCN(C(=O)CCl)c1ccccc1
inconclusive: EC50 [3] 4.45 µM
active: IC50 [1] 1.19 µM | AC50 [2] 7.25 µM | AC50 [4] 6.26 µM | AC50 [5] 7.01 µM

Cc1cc2cc(CNC(=O)c3ccc(S(=O)(=O)N4CCCCC4)cc3)ccc2n1C
active: EC50 [6] 3.8 µM | EC50 [7] 8.51 µM | EC50 [8] 3.37 µM | IC50 [9] 15.8 µM
inactive: IC50 [10] > 66 µM | IC50 [11] > 66 µM | IC50 [12] > 100 µM
